Experiment [1] addresses Recombinant human Menin protein (2-610) / MLL polypeptide binding (Homo sapiens (Human), UniProt O00255). Kind of experiment: Menin and MLL protein binding at a molecular level (fluorescence polarization method). The conditions noted are these: inhibition of Menin / MLL polypeptide binding. The gist of the method:
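Binding of recombinant human Menin (2-610) to 6-FAM-labelled MLL peptide measured by fluorescence polarization (ex 480/em 535 nm) in Tris/NaCl/TCEP buffer, pH 7.5, 2% DMSO. Compound preincubated with Menin 30 min at room temperature, then peptide added for 30 min in the dark. Tested at 1.000 down to 0.0005 μM final.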
On the technique in general: Polarisation of emitted light reports the rotation of a fluorescent probe.

Experiment [2] concerns MV-4-11 cells (human acute myelogenous leukemia cell line carrying MLL-AF4 mutation). Kind of experiment: Cell proliferation assay, MV-4-11 (CellTiter-Glo). To be noted: Homo sapiens, MV4-11, 72 h, MV-4-11 cells, 3 days treatment, CellTiter-Glo; read-out: GI50. The experiment is classed as cell-based. The gist of the method:
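MV-4-11 cells (3000/well, IMDM with 10% HIFBS and 50 μM β-mercaptoethanol) exposed to compound at 1.100–0.001 μM final, 0.1% DMSO, for 3 days at 37°C. Viability read by CellTiter-Glo luminescence on day 0 and day 3, normalised to day-0 and untreated wells.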
For orientation: In ATP-based viability assays light output follows the ATP content of the culture.

SMILES strings stand for the structures. pIC50: −log10 of the molar value.

By pIC50 is commonly meant −log10 of the IC50, conventionally taken in molar units. As usually defined, the GI50 is the concentration giving 50% growth inhibition.

Chain of Recombinant human Menin protein (2-610) / MLL polypeptide binding (O00255 2-610): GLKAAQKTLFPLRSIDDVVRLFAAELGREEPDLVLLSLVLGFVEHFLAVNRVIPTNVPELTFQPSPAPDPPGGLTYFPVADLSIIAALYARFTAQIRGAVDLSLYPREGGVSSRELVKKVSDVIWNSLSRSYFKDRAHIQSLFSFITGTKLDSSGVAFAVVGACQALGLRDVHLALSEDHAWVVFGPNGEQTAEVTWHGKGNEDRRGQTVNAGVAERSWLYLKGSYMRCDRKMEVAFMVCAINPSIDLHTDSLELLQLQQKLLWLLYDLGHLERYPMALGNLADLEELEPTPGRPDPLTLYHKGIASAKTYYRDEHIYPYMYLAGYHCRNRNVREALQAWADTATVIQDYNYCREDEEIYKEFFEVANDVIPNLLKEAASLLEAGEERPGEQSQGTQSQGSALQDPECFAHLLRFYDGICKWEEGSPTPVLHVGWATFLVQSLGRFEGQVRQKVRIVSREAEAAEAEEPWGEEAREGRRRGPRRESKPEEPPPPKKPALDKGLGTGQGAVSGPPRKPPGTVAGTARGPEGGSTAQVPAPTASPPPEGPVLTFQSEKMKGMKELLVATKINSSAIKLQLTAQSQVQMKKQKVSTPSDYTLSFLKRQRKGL

`CCN(C(=O)c1cc(F)ccc1Oc1nncnc1N1CC2(CCN(CC3CCN(c4cccc(C(C)(C)O)n4)CC3)CC2)C1)C(C)C` [Compound 121]: the pIC50 in experiment [1] is 8.82. In addition, in experiment [2], the 50% growth inhibitory concentration (GI50) was 3 nM.

Regarding `CCN(C(=O)c1cc(F)ccc1Oc1nncnc1N1CC2(CCN(CC3CCC(n4ccccc4=O)CC3)CC2)C1)C(C)C` (stereo not drawn) [Compound 122], the pIC50 in experiment [1] was below 6.70. Also, the GI50 in experiment [2] worked out at 119 nM.

`CCN(C(=O)c1cc(F)ccc1Oc1nncnc1N1CC2(CCN(CC3CC=C(c4ccccn4)CC3)CC2)C1)C(C)C` (stereo not drawn) [Compound 123]: the negative-log IC50 (pIC50) in experiment [1] is 6.88. The 50% growth inhibitory concentration (GI50) in experiment [2] is 39 nM.

Regarding `CCN(C(=O)c1cc(F)ccc1Oc1nncnc1N1CC2(CCN(Cc3ccc(-c4ccccn4)cc3)CC2)C1)C(C)C` [Compound 124], in experiment [1], the pIC50 was below 6.70. In addition, in experiment [2], the 50% growth inhibitory concentration (GI50) came out at 505 nM.

Take `CCN(C(=O)c1cc(F)ccc1Oc1nncnc1N1CC2(CCN(CC3CCC(O)(c4ccccn4)CC3)CC2)C1)C(C)C` (stereo not drawn) [Compound 125]: the pIC50 in experiment [1] is below 6.70. Moreover, the GI50 in experiment [2] was found to be 585 nM.

In the case of `CCN(C(=O)c1cc(F)ccc1Oc1nncnc1N1CC2(CCN(CC3CCN(c4ccc(C#N)cn4)CC3(C)C)CC2)C1)C(C)C` (stereo not drawn) [Compound 126], in experiment [1], the negative-log IC50 (pIC50) is 7.84. Moreover, in experiment [2], the concentration for 50% growth inhibition (GI50) came out at 27 nM.

For the compound `CCN(C(=O)c1cc(F)ccc1Oc1nncnc1N1CC(C2(NCc3ccc4[nH]c(C#N)cc4c3C)CC2)C1)C(C)C` [Compound 127], in experiment [1], the negative-log IC50 (pIC50) is 7.61. Further, the GI50 in experiment [2] came to 242 nM.

As for `CCN(C(=O)c1cc(F)ccc1Oc1nncnc1N1CCC(C2(NCc3ccc4[nH]c(C#N)cc4c3C)CC2)C1)C(C)C` (stereo not drawn) [Compound 128], the pIC50 in experiment [1] was 8.29. Also, the 50% growth inhibitory concentration (GI50) in experiment [2] was 70 nM.

As for `CCN(C(=O)c1cc(F)ccc1Oc1nncnc1N1CC(C2CCCN2Cc2ccc3[nH]c(C#N)cc3c2C)C1)C(C)C` (stereo not drawn) [Compound 129], in experiment [1], the pIC50 is 6.75. Besides, the GI50 in experiment [2] is 199 nM.

As to `CCN(C(=O)c1cc(F)ccc1Oc1nncnc1N1CC2(CCN(Cc3ccc4c(cc(C#N)n4C4COC4)c3C)CC2)C1)C(C)C` [Compound 130], in experiment [1], the pIC50 is 8.57. Moreover, in experiment [2], the GI50 stood at 9 nM.

As to `CCN(C(=O)c1cc(F)ccc1Oc1nncnc1N1CC2(CCN(Cc3ccc4[nH]c(C#N)c(C5=CCOCC5)c4c3C)CC2)C1)C(C)C` [Compound 131, 2-((5-(7-((2-cyano-3-(3,6-dihydro-2H-pyran-4-yl)-4-methyl-1H-indol-5-yl)methyl)-2,7-diazaspiro[3.5]nonan-2-yl)-1,2,4-triazin-6-yl)oxy)-N-ethyl-5-fluoro-N-isopropylbenzamide], the pIC50 in experiment [1] was 7.74. The GI50 in experiment [2] amounted to 18 nM.

Regarding `CCN(C(=O)c1cc(F)ccc1Oc1nncnc1N1CC2(CCN(CC3CCN(c4cccc(CO)n4)CC3)CC2)C1)C(C)C` [Compound 132, N-ethyl-5-fluoro-2-((5-(7-((1-(6-(hydroxymethyl)pyridin-2-yl)piperidin-4-yl)methyl)-2,7-diazaspiro[3.5]nonan-2-yl)-1,2,4-triazin-6-yl)oxy)-N-isopropylbenzamide], in experiment [1], the pIC50 was 8.57. For the same compound, the 50% growth inhibitory concentration (GI50) in experiment [2] was found to be 9 nM.

Consider `C=Cc1ccc(N2CCC(CN3CCC4(CC3)CN(c3ncnnc3Oc3ccc(F)cc3C(=O)N(CC)C(C)C)C4)CC2)nn1` [Compound 133, N-ethyl-5-fluoro-N-isopropyl-2-((5-(7-((1-(6-vinylpyridazin-3-yl)piperidin-4-yl)methyl)-2,7-diazaspiro[3.5]nonan-2-yl)-1,2,4-triazin-6-yl)oxy)benzamide], for which the pIC50 in experiment [1] was 8.70. In addition, in experiment [2], the GI50 turned out to be 4 nM.

Turning to `C#Cc1ccc(N2CCC(CN3CCC4(CC3)CN(c3ncnnc3Oc3ccc(F)cc3C(=O)N(CC)C(C)C)C4)CC2)nn1` [Compound 134], the pIC50 in experiment [1] is 8.89. In experiment [2], the concentration for 50% growth inhibition (GI50) came out at 2 nM.

`CCN(C(=O)c1cc(F)ccc1Oc1nncnc1N1CC2(CCN(CC3CCC(c4ccccn4)CC3)CC2)C1)C(C)C` (stereo not drawn) [Compound 135, N-ethyl-5-fluoro-N-isopropyl-2-((5-(7-((4-(pyridin-2-yl)cyclohexyl)methyl)-2,7-diazaspiro[3.5]nonan-2-yl)-1,2,4-triazin-6-yl)oxy)benzamide]: the pIC50 in experiment [1] is 7.26. Besides, in experiment [2], the concentration for 50% growth inhibition (GI50) was determined as 22 nM.

Consider `N#Cc1ccc(N2CCC(CN3CCC4(CC3)CN(c3ncnnc3Oc3ccc(F)cc3C3=C(F)C(O)CCC3)C4)CC2)nc1` (stereo not drawn) [Compound 136, 6-(4-((2-(6-((5,6′-difluoro-5′-hydroxy-2′,3′,4′,5′-tetrahydro-[1,1′-biphenyl]-2-yl)oxy)-1,2,4-triazin-5-yl)-2,7-diazaspiro[3.5]nonan-7-yl)methyl)piperidin-1-yl)nicotinonitrile], for which, in experiment [1], the pIC50 was 6.74. Also, the GI50 in experiment [2] worked out at 170 nM.

Consider `CCN(C(=O)c1cc(F)ccc1Oc1nncnc1N1CC2(CCN(CC3CCN(C4COC4)CC3)CC2)C1)C(C)C` [Compound 137, N-ethyl-5-fluoro-N-isopropyl-2-((5-(7-((1-(oxetan-3-yl)piperidin-4-yl)methyl)-2,7-diazaspiro[3.5]nonan-2-yl)-1,2,4-triazin-6-yl)oxy)benzamide], for which the pIC50 in experiment [1] is 6.85. The GI50 in experiment [2] turned out to be 181 nM.

With `CCN(C(=O)c1cc(F)ccc1Oc1nncnc1N1CC2(CCN(CC3CCN(Cc4c(C)cc(C)[nH]c4=O)CC3)CC2)C1)C(C)C` [Compound 138], in experiment [1], the negative-log IC50 (pIC50) was 6.99. Further, the concentration for 50% growth inhibition (GI50) in experiment [2] turned out to be 409 nM.

For `CCN(C(=O)c1cc(F)ccc1Oc1nncnc1N1CC(C2(N(C)Cc3ccc4[nH]c(C#N)cc4c3C)CC2)C1)C(C)C` [Compound 139, 2-((5-(3-(1-(((2-cyano-4-methyl-1H-indol-5-yl)methyl)(methyl)amino)cyclopropyl)azetidin-1-yl)-1,2,4-triazin-6-yl)oxy)-N-ethyl-5-fluoro-N-isopropylbenzamide], the negative logarithm of the IC50 (pIC50) in experiment [1] is 8.21. Further, the GI50 in experiment [2] amounted to 23 nM.

With `CCN(C(=O)c1cc(F)ccc1Oc1nncnc1N1CC2(CCN(CC3(N(C)CCOC)CC3)CC2)C1)C(C)C` [Compound 140], the pIC50 in experiment [1] was 7.50. For the same compound, the 50% growth inhibitory concentration (GI50) in experiment [2] worked out at 37 nM.

Consider `CCN(C(=O)c1cc(F)ccc1Oc1nncnc1N1CC(C2(N(Cc3ccc4[nH]c(C#N)cc4c3C)C(C)C)CC2)C1)C(C)C` [Compound 141], for which the pIC50 in experiment [1] was 6.81. In addition, in experiment [2], the concentration for 50% growth inhibition (GI50) turned out to be 442 nM.

As for `CCN(C(=O)c1cc(F)ccc1Oc1nncnc1N1CCC(C2(N(C)Cc3ccc4[nH]c(C#N)cc4c3C)CC2)C1)C(C)C` (stereo not drawn) [Compound 142], the pIC50 in experiment [1] was 6.91. In addition, the GI50 in experiment [2] turned out to be 257 nM.

For the compound `CCN(C(=O)c1cc(F)ccc1Oc1nncnc1N1CCC(C2(N(Cc3ccc4[nH]c(C#N)cc4c3C)C(C)C)CC2)C1)C(C)C` (stereo not drawn) [Compound 143], the negative-log IC50 (pIC50) in experiment [1] is below 6.00. In experiment [2], the GI50 is 2950 nM.

On to `CCN(C(=O)c1cc(F)ccc1Oc1nncnc1N1CC2(CCN(CC3(N(C)C(=O)COC)CC3)CC2)C1)C(C)C` [Compound 144, N-ethyl-5-fluoro-N-isopropyl-2-((5-(7-((1-(2-methoxy-N-methylacetamido)cyclopropyl)methyl)-2,7-diazaspiro[3.5]nonan-2-yl)-1,2,4-triazin-6-yl)oxy)benzamide], for which the pIC50 in experiment [1] is 6.21. Besides, the GI50 in experiment [2] was found to be 644 nM.
